A short description of assay [1]: viability of uninfected HEp-2 cells – cell-based, HTS, cytotoxicity control for RSV inhibitor project, dose response (AID 2410). The assay is classed as functional. To be noted: human respiratory syncytial virus.
The subject of assay [2] is Vero. The assay is described as follows: viability of Vero cells under compound – cytotoxicity control for flavivirus capping enzyme inhibitors (AID 588742). The assay is classed as functional. Particulars: Chlorocebus sabaeus.
A short description of assay [3]: NIH3T3 cell viability loss – ATP luminescence, mouse fibroblasts, counter-screen, dose response (AID 2010).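 Also: cells exposed to compound for about 90 hours before reading.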 It counts as functional, cell-based.
Assay [4] concerns the target Induced myeloid leukemia cell differentiation protein Mcl-1 (Homo sapiens, UniProt Q07820). It counts as functional.
Assay [5] has as its target Tyrosyl-DNA phosphodiesterase 2 (Homo sapiens, UniProt O95551). The assay can be described thus: potency against TDP2 phosphodiesterase activity – biochemical, epi absorbance, IC50, dose response (AID 743297).
The target in assay [6] is Eukaryotic translation initiation factor 4E (Mus musculus, UniProt P63073). The assay is described as follows: blockers of eIF4G binding by eIF4E – biochemical, TR-FRET, dose response (AID 855).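 Also: potency for disrupting eIF4E binding to eIF4GI seen as loss of FRET.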 The assay is classed as functional.
Sequence of Eukaryotic translation initiation factor 4E (P63073 whole entry): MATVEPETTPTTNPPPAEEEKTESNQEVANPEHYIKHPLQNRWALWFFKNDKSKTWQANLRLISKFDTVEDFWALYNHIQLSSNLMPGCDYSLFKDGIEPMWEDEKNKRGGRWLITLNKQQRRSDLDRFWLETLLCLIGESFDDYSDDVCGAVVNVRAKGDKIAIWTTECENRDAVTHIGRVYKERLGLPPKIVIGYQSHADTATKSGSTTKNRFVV
The target in assay [7] is T1, Hexokinase-1 (Homo sapiens, UniProt P19367).
T1 sequence (P19367 whole entry): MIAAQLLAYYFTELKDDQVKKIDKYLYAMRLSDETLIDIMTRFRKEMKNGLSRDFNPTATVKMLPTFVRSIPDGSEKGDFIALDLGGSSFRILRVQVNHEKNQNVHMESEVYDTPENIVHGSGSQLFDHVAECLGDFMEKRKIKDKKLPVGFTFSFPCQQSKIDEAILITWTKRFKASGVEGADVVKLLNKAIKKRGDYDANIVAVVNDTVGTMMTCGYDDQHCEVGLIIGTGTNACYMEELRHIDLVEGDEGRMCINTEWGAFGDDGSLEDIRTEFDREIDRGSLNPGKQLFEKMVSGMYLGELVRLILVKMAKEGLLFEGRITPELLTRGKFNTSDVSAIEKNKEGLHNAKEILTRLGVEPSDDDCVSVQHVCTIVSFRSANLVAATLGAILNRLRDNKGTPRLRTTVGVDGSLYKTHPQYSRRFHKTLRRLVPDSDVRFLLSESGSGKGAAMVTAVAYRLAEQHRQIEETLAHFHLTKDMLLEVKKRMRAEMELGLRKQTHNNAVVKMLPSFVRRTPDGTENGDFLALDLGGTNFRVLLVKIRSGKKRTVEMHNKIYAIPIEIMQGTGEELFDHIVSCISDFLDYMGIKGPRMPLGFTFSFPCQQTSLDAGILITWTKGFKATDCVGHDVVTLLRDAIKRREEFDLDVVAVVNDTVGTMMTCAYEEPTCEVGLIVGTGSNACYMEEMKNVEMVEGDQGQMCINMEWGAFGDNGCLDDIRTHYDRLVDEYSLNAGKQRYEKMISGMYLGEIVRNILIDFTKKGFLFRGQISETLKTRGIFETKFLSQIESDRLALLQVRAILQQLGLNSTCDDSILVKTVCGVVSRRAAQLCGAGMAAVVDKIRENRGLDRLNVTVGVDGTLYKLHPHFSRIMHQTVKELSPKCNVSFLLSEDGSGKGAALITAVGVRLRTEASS
The assay is described as follows: SAR analysis of small molecule inhibitors of hexokinase domain containing I (HKDC1) in the hexokinase 1 selectivity assay. [Related pubchem assays (depositor defined):AID493160, AID493190]. The assay is classed as functional.

Assay [8] has as its target Cystic fibrosis transmembrane conductance regulator/Golgi-associated PDZ and coiled-coil motif-containing protein (Homo sapiens, UniProt P13569+Q9HD26). The assay is described as follows: potency against CAL PDZ-peptide interaction – biochemical, fluorescence polarization, Cerulean-tagged CAL PDZ, cherry-picks, dose response (AID 504773).
Assay [9] in a line: blockers of CAL PDZ ligand groove binding – biochemical, fluorescence polarization, untagged CAL PDZ, cherry-pick, dose response (AID 602267). The assay is classed as functional.
Assay [10] has as its target T2, Streptokinase A (Streptococcus pyogenes serotype M1, UniProt P10520).
T2 sequence (P10520 whole entry): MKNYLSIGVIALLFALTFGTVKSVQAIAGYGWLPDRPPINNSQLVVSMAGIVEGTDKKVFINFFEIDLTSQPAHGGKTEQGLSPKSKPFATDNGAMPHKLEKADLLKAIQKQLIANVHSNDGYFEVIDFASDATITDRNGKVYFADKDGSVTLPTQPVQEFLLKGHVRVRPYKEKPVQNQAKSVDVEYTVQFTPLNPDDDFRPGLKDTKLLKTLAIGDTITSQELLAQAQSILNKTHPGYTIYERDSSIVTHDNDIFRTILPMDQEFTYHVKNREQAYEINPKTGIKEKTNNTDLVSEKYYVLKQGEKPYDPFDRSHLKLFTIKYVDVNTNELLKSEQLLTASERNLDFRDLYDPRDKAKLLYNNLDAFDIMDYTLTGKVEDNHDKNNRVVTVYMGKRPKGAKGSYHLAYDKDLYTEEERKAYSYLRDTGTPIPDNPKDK
The assay can be described thus: viability-normalized secreted streptokinase activity reduction – plasminogen activation absorbance, OD405, dose response (AID 1914).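 Also: secreted streptokinase activity via plasminogen activation per viability signal from cell pellet.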 It counts as functional, Streptococcus pyogenes M1 GAS.

The target in assay [11] is T3, Heat shock factor protein 1 (Mus musculus, UniProt P38532).
T3 sequence (P38532 whole entry): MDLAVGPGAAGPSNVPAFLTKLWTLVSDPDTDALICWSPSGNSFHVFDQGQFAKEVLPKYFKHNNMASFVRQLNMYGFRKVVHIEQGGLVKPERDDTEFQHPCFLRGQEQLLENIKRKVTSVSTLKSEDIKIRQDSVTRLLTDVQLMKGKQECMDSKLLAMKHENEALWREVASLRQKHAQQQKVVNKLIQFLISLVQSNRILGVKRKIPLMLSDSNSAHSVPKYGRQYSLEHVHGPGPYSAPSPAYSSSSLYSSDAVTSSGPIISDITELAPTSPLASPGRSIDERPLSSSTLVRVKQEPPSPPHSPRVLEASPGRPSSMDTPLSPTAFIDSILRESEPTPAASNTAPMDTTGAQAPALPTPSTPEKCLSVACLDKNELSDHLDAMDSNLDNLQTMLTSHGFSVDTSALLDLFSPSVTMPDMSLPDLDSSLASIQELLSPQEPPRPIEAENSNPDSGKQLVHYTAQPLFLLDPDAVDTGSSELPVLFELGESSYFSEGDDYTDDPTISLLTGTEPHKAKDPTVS
The assay is described as follows: decrease of HSF1-responsive luciferase luminescence – cell-based, NIH3T3, dose retest, confirmation (AID 2382).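 Also: NIH3T3 fibroblasts with HSF1-driven luciferase reporter stressed by proteasome inhibitor MG132; luminescence from HSF1-driven luciferase expression after 8 hours of MG132 stress.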 It counts as functional.

Assay [12] concerns Streptococcus sp. 'group A'. The assay is described as follows: Streptococcus pyogenes SK(-)GAS viability under kanamycin – luminescence, BacTiterGlo, confirmation, counter-screen for streptokinase expression inhibitor project, dose response (AID 1900). The assay is classed as functional, organism-based.
For assay [13], the target named is Heat shock protein HSP 90-alpha (Homo sapiens, UniProt P07900). The assay is described as follows: Luminescence-based dose response biochemical high throughput screening assay for inhibitors of the Heat Shock Protein 90 (HSP90). [Related pubchem assays: 1831 (Summary AID.), 1846 (Confirmation screen.), 1789 (Primary screen.)].
Assay [14] has as its system INS1. The assay is described as follows: INS-1E survival protection against cytokine death – cell-based, luminescence, retest, dose response (AID 449756).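 Also: cell death triggered by IL-1 beta plus TNF-alpha plus IFN-gamma mixture; protective hits raise ATP signal compared with cytokine alone wells.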 The assay is classed as functional. Particulars: Rattus norvegicus.
The target in assay [15] is Histone-lysine N-methyltransferase NSD2 (Homo sapiens, UniProt O96028). The assay is classed as biochemical.
Sequence of Histone-lysine N-methyltransferase NSD2 (O96028 whole entry): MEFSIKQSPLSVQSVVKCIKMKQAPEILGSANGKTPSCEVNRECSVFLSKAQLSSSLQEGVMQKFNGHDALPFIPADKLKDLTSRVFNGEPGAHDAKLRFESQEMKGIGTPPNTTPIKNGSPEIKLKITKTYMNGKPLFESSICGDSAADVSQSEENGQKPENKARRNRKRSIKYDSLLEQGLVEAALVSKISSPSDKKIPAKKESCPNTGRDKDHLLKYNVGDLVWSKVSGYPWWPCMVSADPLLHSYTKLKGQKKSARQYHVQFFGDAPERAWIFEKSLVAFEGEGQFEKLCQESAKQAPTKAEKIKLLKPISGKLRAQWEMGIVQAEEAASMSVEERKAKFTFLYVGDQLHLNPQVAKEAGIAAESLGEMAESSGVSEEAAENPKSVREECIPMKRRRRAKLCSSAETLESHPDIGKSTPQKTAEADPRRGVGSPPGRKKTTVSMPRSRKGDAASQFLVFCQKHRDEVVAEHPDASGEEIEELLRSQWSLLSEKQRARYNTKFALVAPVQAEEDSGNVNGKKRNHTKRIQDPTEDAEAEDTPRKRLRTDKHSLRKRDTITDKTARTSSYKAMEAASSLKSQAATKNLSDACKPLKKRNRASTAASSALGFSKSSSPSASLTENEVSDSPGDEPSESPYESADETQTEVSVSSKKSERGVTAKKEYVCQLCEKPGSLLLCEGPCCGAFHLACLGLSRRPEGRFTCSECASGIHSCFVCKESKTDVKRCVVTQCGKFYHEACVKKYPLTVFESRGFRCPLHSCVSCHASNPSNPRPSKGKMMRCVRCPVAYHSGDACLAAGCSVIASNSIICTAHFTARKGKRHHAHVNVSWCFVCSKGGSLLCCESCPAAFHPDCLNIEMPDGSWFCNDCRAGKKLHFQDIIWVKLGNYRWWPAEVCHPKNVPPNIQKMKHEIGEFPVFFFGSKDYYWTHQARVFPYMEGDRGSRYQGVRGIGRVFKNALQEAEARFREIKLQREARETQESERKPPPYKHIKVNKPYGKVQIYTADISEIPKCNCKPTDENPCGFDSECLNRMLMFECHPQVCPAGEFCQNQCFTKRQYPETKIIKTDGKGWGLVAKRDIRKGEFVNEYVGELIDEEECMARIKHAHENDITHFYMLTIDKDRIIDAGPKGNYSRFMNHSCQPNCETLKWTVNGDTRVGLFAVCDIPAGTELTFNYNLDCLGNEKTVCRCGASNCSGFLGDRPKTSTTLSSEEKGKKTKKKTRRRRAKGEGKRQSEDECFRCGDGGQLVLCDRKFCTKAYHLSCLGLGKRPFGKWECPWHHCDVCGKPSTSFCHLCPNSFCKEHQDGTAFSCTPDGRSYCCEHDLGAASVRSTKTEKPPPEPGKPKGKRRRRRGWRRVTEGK

Molecules are shown by their SMILES. Active and inactive are the calls of the source. A value given as a limit tells only on which side of the number the result lay.

Sequence of Cystic fibrosis transmembrane conductance regulator/Golgi-associated PDZ and coiled-coil motif-containing protein (P13569 whole entry, other chains not shown): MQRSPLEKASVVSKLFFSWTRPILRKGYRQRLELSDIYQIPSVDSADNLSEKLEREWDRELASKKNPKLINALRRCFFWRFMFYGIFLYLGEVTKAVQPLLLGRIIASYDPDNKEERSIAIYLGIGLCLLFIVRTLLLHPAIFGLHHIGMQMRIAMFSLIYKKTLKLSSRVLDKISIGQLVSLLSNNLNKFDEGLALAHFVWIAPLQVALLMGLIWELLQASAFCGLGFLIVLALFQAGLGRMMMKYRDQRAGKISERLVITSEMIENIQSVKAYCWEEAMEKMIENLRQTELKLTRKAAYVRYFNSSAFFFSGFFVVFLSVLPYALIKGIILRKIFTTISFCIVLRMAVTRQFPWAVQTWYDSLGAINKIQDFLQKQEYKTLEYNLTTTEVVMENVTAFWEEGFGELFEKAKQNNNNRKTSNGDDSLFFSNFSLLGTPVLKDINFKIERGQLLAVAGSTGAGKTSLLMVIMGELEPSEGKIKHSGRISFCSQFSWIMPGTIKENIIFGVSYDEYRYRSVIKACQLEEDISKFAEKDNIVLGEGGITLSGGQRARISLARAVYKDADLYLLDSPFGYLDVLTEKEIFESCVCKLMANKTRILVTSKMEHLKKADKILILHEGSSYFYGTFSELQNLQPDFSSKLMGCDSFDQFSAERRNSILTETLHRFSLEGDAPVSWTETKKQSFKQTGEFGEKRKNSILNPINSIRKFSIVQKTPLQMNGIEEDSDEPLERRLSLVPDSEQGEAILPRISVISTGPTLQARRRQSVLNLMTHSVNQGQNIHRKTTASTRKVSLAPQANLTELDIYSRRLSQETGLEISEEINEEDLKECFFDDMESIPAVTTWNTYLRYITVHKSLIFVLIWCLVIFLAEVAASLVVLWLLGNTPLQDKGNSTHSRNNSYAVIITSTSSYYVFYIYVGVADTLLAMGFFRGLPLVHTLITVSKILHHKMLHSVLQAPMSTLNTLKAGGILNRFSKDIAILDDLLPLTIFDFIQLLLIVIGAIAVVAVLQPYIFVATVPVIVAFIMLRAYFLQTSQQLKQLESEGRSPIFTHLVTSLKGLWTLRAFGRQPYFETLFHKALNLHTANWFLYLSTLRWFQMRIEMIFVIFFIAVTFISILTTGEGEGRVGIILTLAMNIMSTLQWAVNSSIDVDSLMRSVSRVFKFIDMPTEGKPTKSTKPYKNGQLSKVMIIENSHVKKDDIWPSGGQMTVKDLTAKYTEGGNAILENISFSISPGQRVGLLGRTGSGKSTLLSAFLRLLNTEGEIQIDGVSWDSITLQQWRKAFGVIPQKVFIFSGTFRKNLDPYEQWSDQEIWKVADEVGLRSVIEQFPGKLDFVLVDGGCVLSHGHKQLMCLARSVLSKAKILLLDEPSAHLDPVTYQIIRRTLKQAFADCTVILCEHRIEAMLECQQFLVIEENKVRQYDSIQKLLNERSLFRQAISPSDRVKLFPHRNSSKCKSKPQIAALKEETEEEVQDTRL
Sequence of Tyrosyl-DNA phosphodiesterase 2 (O95551 whole entry): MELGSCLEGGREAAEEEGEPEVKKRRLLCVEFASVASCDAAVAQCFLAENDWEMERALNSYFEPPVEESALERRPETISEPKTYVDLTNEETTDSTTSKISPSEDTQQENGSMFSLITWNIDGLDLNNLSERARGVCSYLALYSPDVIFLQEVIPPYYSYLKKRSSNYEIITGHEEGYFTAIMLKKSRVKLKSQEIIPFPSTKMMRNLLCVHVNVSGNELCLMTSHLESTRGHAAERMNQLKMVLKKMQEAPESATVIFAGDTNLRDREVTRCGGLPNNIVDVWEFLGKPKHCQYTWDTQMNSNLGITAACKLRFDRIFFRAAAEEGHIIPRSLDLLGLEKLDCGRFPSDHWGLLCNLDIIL
Sequence of Induced myeloid leukemia cell differentiation protein Mcl-1 (Q07820 whole entry): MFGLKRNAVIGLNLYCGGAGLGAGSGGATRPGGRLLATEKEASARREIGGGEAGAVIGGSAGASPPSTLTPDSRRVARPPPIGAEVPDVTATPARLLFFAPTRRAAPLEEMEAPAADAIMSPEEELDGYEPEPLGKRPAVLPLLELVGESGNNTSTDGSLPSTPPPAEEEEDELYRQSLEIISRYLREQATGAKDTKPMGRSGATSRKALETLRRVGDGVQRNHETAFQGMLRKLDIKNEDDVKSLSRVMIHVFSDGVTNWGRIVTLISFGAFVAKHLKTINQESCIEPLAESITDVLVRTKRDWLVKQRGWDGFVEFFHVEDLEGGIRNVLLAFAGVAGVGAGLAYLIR

For the compound `NC(=O)C1CCN(C2=C(Cl)C(=O)c3ccccc3C2=O)CC1`, the CC50 was 7.88 µM (active) in [1] and 22.3 µM (active) in [2]. In assay [3], the half-maximal effective concentration (EC50) is 3.29 µM (active). For the same compound, the IC50 in assay [4] is > 54 µM (not active); in [5], 13.6 µM (inactive).
As for `O=c1c2ccccc2nc(/C=C/c2cccnc2)n1Cc1ccccc1`, the half-maximal inhibitory concentration (IC50) is 5.77 µM (active) in [6] and > 80 µM (inactive) in [7]. Moreover, the AC50 in [8] was 23.5 µM (active); in [9], 91.1 µM (active).
Take `O=C(O)c1ccc(N/N=C/c2ccc(OC(=O)c3ccccc3Cl)cc2)cc1`: the EC50 in [10] was > 150 µM (not active); in assay [11], 0.167 µM (active); in assay [12] it was 2.91 µM (active).
On to `COC(=O)c1ccccc1NC1=C/C(=N\S(=O)(=O)c2ccc(C(=O)O)cc2)c2ccccc2C1=O`, for which, in [13], the IC50 was 1.26 µM (active). The AC50 was 3.34 µM (active) in [14] and 0.557 µM (active) in [15].

For the origin of these results see ChEMBL document CHEMBL1201862, “PubChem BioAssay data set” (2004).
